In data set [1] the test system is luciferase (luc) expressing TRAMP-C1 cells. In words: TRAMP-C1 cell survival after single dose irradiation (bioluminescence, 96-well). It is filed as cell-based, mouse. To be noted: for survival (% of bioluminescence before irradiation): single 8 Gy dose, drugs from 4 days after irradiation for 7 days, cinaciguat, p62 inducer, enzalutamide 1 μM, 8-bromo-cGMP 100 μM, DETA-NONOate 100 M (so in the source); for effect on irradiation-induced cell death: single dose 8 Gy irradiation, TRAMP-C1 cells, preliminary studies. As for the experimental part: FIG. 4. The effect of single-dose and fractionated irradiation on TRAMP-C1 cell survival. A) Cells were plated at 5,000 cells/well in 96-well plates and subjected to single dose irradiation of 0 or 8 Gy. Four days following irradiation cells were treated with cinaciguat (1 μM), p62 inducer (1 μM), enzalutamide (1 μM), DETA-NONOate ([…]), 8-bromo-cGMP (100 μM) or vehicle (0.1% DMSO) for 1 week. Bioluminescence was measured before and after irradiation, and following drug treatment. […] B) Determination of 6 Gy as the optimal 5-day fractionated radiation dose based on cell survival.
Effect of drugs targeting NO·-cGMP pathway, mitophagy and AR signaling on TRAMP-C1 survival after single dose irradiation and determination of optimal fractionated irradiation protocol. To assess whether promoting NO·-cGMP signaling, induction of mitophagy or AR inhibition would enhance the effect of radiation treatment, the effect of these different drugs on cultured luciferase (luc) expressing TRAMP-C1 cells was examined in a 96-well plate format. Bioluminescence was assessed before irradiation after which the cells were exposed to a single 8 Gy radiation dose. Four days after irradiation cells were treated with the different drugs for a further 7 days. […] To determine the optimal fractionated irradiation dosing protocol, fractionated irradiation protocols were examined in cultured cells over a 5-day period. […] Therefore, 6 Gy per day for 5 days can be used as a dosing protocol.
Cell culture. Luciferase expressing TRAMP-C1 cells may be maintained in DMEM supplemented with 10% FBS, 1% PenStrep, 5 μg/ml insulin and 10 nM dehydroisoandrosterone and used at 10-15 passages. For experiments in Examples 1-3 cells may be plated at 5,000 cells/well in 96-well plates.
Bioluminescence in vitro and in vivo imaging. Cells may be treated with 150 μM luciferin D and immediately placed in Tecan SPECTRA Fluor Plus plate reader for bioluminescence measurement. Readings may be averaged for each group of cells (n≥ 8) and background (empty well readings) subtracted. Mice may be anesthetized with avertin (300 mg/kg, IP), depilated and injected with 150 mg/kg luciferin D, IP. They may be […] in a BioRad ChemiDoc MP imaging system in the supine position. Bioluminescence may be imaged for 600 sec using the Chemi Hi sensitivity protocol, intensity expressed colorimetrically, superimposed over images of the mice.

Data set [2] relates to orthotopic TRAMP-C1 tumors. In words: Orthotopic TRAMP-C1 tumors after fractionated irradiation, prostate tissue weight. The format is in vivo, C57BI/6 mice. The following applies: 2 Gy fractions x 5 days; after one week osmotic pump 1 mg/kg/day for 14 days; vs irradiation alone. The procedure:
FIG. 5. TRAMP-C1 orthotopic tumors and the effects of irradiation. A) TRAMP-C1 cells (10^7 cells/100 μl) were injected bilaterally into the ventrolateral prostatic lobes to create the orthotopic tumor mouse model. […] B) TRAMP-C1 tumor in a non-irradiated mouse 5 weeks after cell injection. C) Tumor following fractionated irradiation (2 Gy×5 days, starting 4 weeks post injection). D) Prostate wet weight in control, non-irradiated and irradiated tumor bearing animals.
FIG. 6. Bioluminescence imaging of prostate tumors and prostate size assessment following treatments. A) Image of colorimetrically expressed bioluminescence intensity superimposed over the mouse image. B) Prostates were excised from non-injected control, injected non-irradiated and injected irradiated (2 Gy×5 days) mice with or without treatments (P62 inducer or cinaciguat, 1 mg/kg/day for 2 weeks by ALZET pumps starting 1 week post irradiation). C) Timeline of tumor growth based on preliminary data.
Development of orthotopic TRAMP-C1 tumors in C57BI/6 mice and the effect of fractionated irradiation. […] At the conclusion of the treatment, tumor weights were evaluated. Without any intervention (drug or irradiation), there was a significant increase in tumor mass evaluated as total prostate tissue weight (FIG. 6 (B)).

A short description of data set [3]: Blood pressure and heart rate under cinaciguat treatment. It is filed as in vivo, mice.
Another data set concerns Bcl-2/BAX ratio. To be noted: aged mice, reversal of benign prostatic hyperplasia; previously demonstrated; cited from earlier work.
For data set [4], the system named is bladder of CyB5R3 smooth muscle conditional knockout mice. To be noted: acute intraperitoneal injection; cited from earlier work.
For data set [5], the system named is sGCα1, Bcl-2/BAX and NF-κβ. In words: Immunolocalization of sGCα1, Bcl-2/BAX and NF-κβ in orthotopic TRAMP-C1 tumor sections. It is filed as in vivo, mouse. To be noted: fractionated irradiation plus 1 mg/kg/day for two weeks. As for the experimental part:
FIGS. 7A and 7B. Alterations in the sGCα1, Bcl-2/BAX ratio and NF-κβ nuclear localization in prostate tumors from non-irradiated mice, and irradiated mice treated with cinaciguat or p62 inducer based on immunolabeling intensity. A)-C) sGC α1 immunolabeling in A) non-irradiated orthotopic TRAMP-C1 tumors. B) orthotopic tumor from mouse receiving fractionated irradiation followed by two weeks of cinaciguat (1 mg/kg/day) treatment. C) orthotopic tumor from mouse receiving fractionated irradiation followed by two weeks of p62 mitophagy inducer (1 mg/kg/day) treatment. D)-F) Immunolabeling for Bcl-2 of D) non-irradiated orthotopic TRAMP-C1 tumor. E) orthotopic tumor from mouse receiving fractionated irradiation and cinaciguat treatment. F) orthotopic tumor from mouse receiving fractionated irradiation and p62 mitophagy inducer treatment. G-I) Immunolabeling for NF-κβ of G) non-irradiated orthotopic TRAMP-C1 tumor. H) orthotopic tumor from mouse receiving fractionated irradiation and cinaciguat treatment. I) orthotopic tumor of mouse receiving fractionated irradiation and p62 mitophagy inducer treatment. J) Bar chart for ratio of sGCα1 positive area to total cell area. K) Bar chart of Bcl-2 positive staining versus BAX positive staining in sequential sections from each group. […] Green fluorescence—immunolabeling, Blue—DAPI, nuclei. […]

The subject of data set [6] is mouse bladder with chronic radiation cystitis. Nature of the data set: Chronic radiation cystitis in mice: cystometry (CMG) and bladder collagen staining. The format is in vivo. The source says:
FIG. 12 Effects of cinaciguat on a mouse bladder with chronic radiation cystitis. A) Cystometry (CMG), non-irradiated mouse. B) CMG, 9 weeks following bladder irradiation (10 Gy). C) CMG, irradiation+daily gavage for 2 weeks with cinaciguat. D) Active and (E-F) passive length-tensions from irradiated+vehicle (red) vs. irradiated+cinaciguat (blue) bladder strips. G-I) Bladder cross-sections stained with Verhoeff Van Gieson solution; collagen is stained pink. J) Collagen, % area of the bladder wall, N=4. K) bladder weight in mg, control vs. irradiated (irr)>9 wks; N=5 ea.
Furthermore, irradiation decreases bladder weight by approximately 30% that could be attributed to muscle atrophy (FIG. 12 (K)).

For data set [7] the following is noted: given via i.v. drip; cited from earlier work.

For `Nc1nc2c(nc(Br)n2[C@@H]2O[C@@H]3COP(=O)(O)O[C@H]3[C@H]2O)c(=O)[nH]1` [8-bromo-cGMP], in data set [1], the “survival (% of bioluminescence before irradiation)” value is 65±7% and the “effect on irradiation-induced cell death” value is reported as “did not enhance irradiation-induced cell death”.
As to `NCCN(CCN)/[N+]([O-])=N/O` [DETA-NoNoate], the “survival (% of bioluminescence before irradiation)” value in data set [1] was determined as 62±13%. Further, the “effect on irradiation-induced cell death” value in data set [1] (listed as DETA NoNoate) is “not”; in data set [1] (listed as DETA-NONOate), “did not enhance irradiation-induced cell death”.
As for `O=C(O)CCCCN(CCc1ccccc1OCc1ccc(CCc2ccccc2)cc1)Cc1ccc(C(=O)O)cc1` [cinaciguat, 4-({(4-carboxybutyl)[2-(2-{[4-(2-phenylethyl)phenyl]methoxy}phenyl)ethyl]amino}methyl) benzoic acid], the “tumor mass evaluated as total prostate tissue weight” value in data set [2] was “marked decrease compared to irradiation alone”. Further, the “effect on blood pressure” value in data set [3] (infused post irradiation 0.1-1 mg/kg/day for 28 days via osmotic pumps, preliminary data) was “without adversely affecting blood pressure”. For the same compound, in data set [3] (once-a-day oral 10 mg/kg), the “effects on blood pressure and heart rate” value is “only transient effects on blood pressure and heart rate”. For the same compound, in the data set with Bcl-2/BAX ratio, the Bcl-2/BAX ratio entry was “decreasing the Bcl-2/BAX ratio”. For the same compound, in data set [4], the “intercontractile interval (ICI)” value was “increased ICI” and the non-voiding contractions entry is recorded as “eliminated non-voiding contractions”. The “sGCα1, Bcl-2/BAX and NF-κβ immunolabeling in tumor” value in data set [5] is listed as “all three markers were reduced”. Further, in data set [1], the “survival (% of bioluminescence before irradiation)” value came out at 31±13% and the “effect on irradiation-induced cell death” value is “potentiated”. Moreover, in data set [1] (listed as Cinaciguat), the “effect on irradiation-induced cell death” value is reported as “most effective in promoting irradiation-induced tumor cell death”. In addition, the “bladder wall structure (collagen staining)” value in data set [6] (chronically irradiated mice, Verhoeff Van Gieson staining) was “bladder wall structure similar to non-irradiated controls”. In addition, the CMG profile entry in data set [6] (daily gavage 10 mg/kg/day starting 7 weeks post irradiation (10 Gy), 2 weeks) is recorded as “normalized the CMG profile”. The “collagen content of bladder wall” value in data set [6] (doubling of collagen 9 weeks post irradiation) is “reversed”. The “blood pressure effect (hypotension)” value in data set [7] is “induced hypotension”.
Take `CNC(=O)c1ccc(N2C(=S)N(c3ccc(C#N)c(C(F)(F)F)c3)C(=O)C2(C)C)cc1F` [enzalutamide]: in data set [1], the “survival (% of bioluminescence before irradiation)” value is given as 80±11%; the “effect on irradiation-induced cell death” value was “protected the cells and not”.

The record behind these values is patent US20240335408A1, “Soluble Guanylate Cyclase Activators for Cancer and Fibrosis Treatment” (University of Pittsburgh - of the Commonwealth System of …, priority 2023, published 2024).
